The values that follow come from patent US7410993B2, “3,6-disubstituted azabicyclo [3.1.0] hexane deriviatives useful as muscarinic receptor antagonists” (Ranbaxy Laboratories Limited, priority 2002, dated 2008).

Where only a bound is given, the exact number is not on record here.

This test concerns the target T1, M2 muscarinic receptor (Rattus norvegicus, UniProt P10980).
T1 construct: Submandibular glands and heart were isolated and placed in ice cold homogenizing buffer; from tissue; host or cells: rat heart membrane homogenate
T1 sequence (P10980 1-466): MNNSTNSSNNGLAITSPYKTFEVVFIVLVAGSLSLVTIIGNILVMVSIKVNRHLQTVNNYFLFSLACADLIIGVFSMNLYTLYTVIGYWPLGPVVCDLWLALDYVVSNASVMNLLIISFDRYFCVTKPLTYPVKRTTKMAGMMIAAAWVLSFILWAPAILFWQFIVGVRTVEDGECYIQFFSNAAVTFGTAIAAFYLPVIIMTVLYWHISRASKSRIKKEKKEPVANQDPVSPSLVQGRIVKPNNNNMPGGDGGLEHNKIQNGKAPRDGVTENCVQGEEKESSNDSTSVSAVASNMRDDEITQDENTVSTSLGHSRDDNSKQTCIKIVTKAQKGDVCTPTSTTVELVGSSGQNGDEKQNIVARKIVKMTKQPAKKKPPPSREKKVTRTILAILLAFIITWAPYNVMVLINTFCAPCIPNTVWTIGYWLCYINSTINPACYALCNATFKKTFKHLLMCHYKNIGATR
Kind of test: Radioligand binding assay, [3H]-N-methylscopolamine, rat heart membranes. The note with it: [3H]NMS binding.
The Ki is a dissociation constant, usually derived from enzyme kinetics or from competition with a known ligand. With `Cc1ccc(O)c(C(CCN2CC3(C)CC3(C)C2)c2ccccc2)c1` (stereo not drawn) [Compound No. 4, 1-(1,5-dimethyl-3-azabicyclo[3.1.0]hex-3-yl)-3-(2-hydroxy-5-methylphenyl)-3-phenyl propane], the Ki is greater than 1000 nM.

With `Cc1ccc(OCc2ccccc2)c(C(CCN2CC3(C)CC3(C)C2)c2ccccc2)c1` (stereo not drawn) [Compound No. 3, 1-(1,5-dimethyl-3-azabicyclo[3.1.0]hex-3-yl)-3-(2-benzyloxy-5-methylphenyl)-3-phenyl propane], the Ki is greater than 10000 nM.

In the case of `Cc1ccc(O)c(C(CCN2CC3CC3C2C)c2ccccc2)c1` (single isomer, unassigned) [Compound No. 9, 1-(2-methyl-3-azabicyclo[3.1.0]hex-3-yl)-3-(2-hydroxy-5-methylphenyl)-3-phenyl propane], the affinity corresponds to a Ki of 42 nM.

Molecule `Cc1ccc(O)c(C(CCN2CC3CC3C2)c2ccccc2)c1` (stereo not drawn) [Compound No. 2, 1-(3-azabicyclo[3.1.0]hex-3-yl)-3-(2-hydroxy-5-methylphenyl)-3-phenyl propane] returned a Ki of 105 nM. Against the preceding molecule, the Ki is about 2.5-fold higher.

In turn, `Cc1ccc(O)c(C(CCN2CC3CC3C2C)c2ccccc2)c1` (single isomer, unassigned) [Compound No. 8, 1-(2-methyl-3-azabicyclo[3.1.0]hex-3-yl)-3-(2-hydroxy-5-methylphenyl)-3-phenyl propane] registered an inhibition constant (Ki) of 34 nM. This Ki lies about 3.1-fold lower than the previous one.

In turn, `Cc1ccc(O)c(C(CCN2CC3CC3(C)C2)c2ccccc2)c1` (stereo not drawn) [Compound No. 6, 1-(1-methyl-3-azabicyclo[3.1.0]hex-3-yl)-3-(2-hydroxy-5-methylphenyl)-3-phenyl propane] came in with a Ki of 221 nM.
